Experimental data reported in patent publication US11357779B2 (G1 Therapeutics, Inc., priority 2018, dated 2022).

Test: Noncompartmental pharmacokinetic parameters (Cmax, Tmax, AUC, Racc) in QD and BID cohorts of Form B
Format: in vivo, human
Conditions: for Racc (Max) / Racc (Mean) / Racc (Median) / Racc (Min): AUCDay 29/AUCDay 1
Procedure: Analysis of plasma concentration versus time data for calculation of standard pharmacokinetic (PK) parameters following oral administration was conducted using Phoenix WinNonlin version 6.3 using actual blood sampling times.
The following pharmacokinetic parameters were calculated from the concentration versus time data obtained in Example 1 for each of the above QD (200 mg, 300 mg, 400 mg, 500 mg, or 650 mg dosed) and BID (100 mg, 150 mg, or 200 mg doses) Form B of Compound II dosage cohorts: • Cmax—the observed peak plasma concentration determined from the plasma concentration versus time data obtained on Day 1 and Day 29, as applicable; • Tmax—the time to reach the observed peak plasma concentration from the plasma concentration versus time data obtained on Day 1 and Day 29, as applicable; • AUC—area under the plasma concentration versus time curve during a dosing interval on Day 1 and Day 29, as applicable; and • Racc—accumulation ratio calculated as AUCDay 29/AUCDay 1.

[1] = Cohort 1, 200 mg QD of Form B, Day 1
[2] = Cohort 2, 300 mg QD of Form B, Day 1
[3] = Cohort 3, 400 mg QD of Form B, Day 1
[4] = Cohort 4, 500 mg QD of Form B, Day 1
[5] = Cohort 5, 650 mg QD of Form B, Day 1
[6] = Cohort 6, 100 mg BID of Form B, Day 1
[7] = Compound I, 100 mg BID of Form B, Cohort 6
[8] = Compound I, 100 mg BID of Form B, Cohort 6, Day 29
[9] = Compound I, 150 mg BID of Form B, Cohort 7
[10] = Compound I, 150 mg BID of Form B, Cohort 7, Day 1
[11] = Compound I, 150 mg BID of Form B, Cohort 7, Day 29
[12] = Compound I, 200 mg BID of Form B, Cohort 7, Day 1
[13] = Compound I, 200 mg BID of Form B, Cohort 8
[14] = Compound I, 200 mg BID of Form B, Cohort 8, Day 29
[15] = Compound I, 200 mg QD of Form B, Cohort 1
[16] = Compound I, 200 mg QD of Form B, Cohort 1, Day 29
[17] = Compound I, 300 mg QD of Form B, Cohort 2
[18] = Compound I, 300 mg QD of Form B, Cohort 2, Day 29
[19] = Compound I, 400 mg QD of Form B, Cohort 3
[20] = Compound I, 400 mg QD of Form B, Cohort 3, Day 29
[21] = Compound I, 500 mg QD of Form B, Cohort 4
[22] = Compound I, 500 mg QD of Form B, Cohort 4, Day 29
[23] = Compound I, 650 mg QD of Form B, Cohort 5
[24] = Compound I, 650 mg QD of Form B, Cohort 5, Day 29

## CC(C)N1CCN(c2ccc(Nc3ncc4cc5n(c4n3)C3(CCCCC3)CNC5=O)nc2)CC1 [Compound I, 2′-((5-(4-isopropylpiperazin-1-yl)pyridin-2-yl)amino)-7′,8′-dihydro-6′H-spiro[cyclohexane-1,9′-pyrazino[1′,2′:1,5]pyrrolo[2,3-d]pyrimidin]-6′-one]
[1]
  AUClast (Max): 355 ng·h/mL
  AUClast (Min): 98.9 ng·h/mL
  Cmax (Max): 40.0 ng/mL
  Cmax (Min): 8.26 ng/mL
[2]
  AUClast (Max): 580 ng·h/mL
  AUClast (Min): 106 ng·h/mL
[3]
  AUClast (Max): 248 ng·h/mL
  AUClast (Min): 177 ng·h/mL
  Cmax (Max): 24.4 ng/mL
  Cmax (Min): 14.4 ng/mL
[4]
  AUClast (Max): 684 ng·h/mL
  AUClast (Min): 403 ng·h/mL
  Cmax (Max): 68.7 ng/mL
  Cmax (Min): 27.8 ng/mL
[5]
  AUClast (Max): 1040 ng·h/mL
  AUClast (Min): 482 ng·h/mL
  Cmax (Max): 80.7 ng/mL
  Cmax (Min): 38.2 ng/mL
  Tmax (Max): 10.0 h
[6]
  AUClast (Max): 92.6 ng·h/mL
  AUClast (Min): 42.8 ng·h/mL
  Cmax (Max): 14.7 ng/mL
  Cmax (Min): 7.25 ng/mL
[7]
  Racc (Max): 2.96 (h * ng/mL)/(h * ng/mL)
  Racc (Mean): 1.90 (h * ng/mL)/(h * ng/mL)
  Racc (Median): 2.06 (h * ng/mL)/(h * ng/mL)
  Racc (Min): 0.931 (h * ng/mL)/(h * ng/mL)
[8]
  AUClast (Max): 183 ng·h/mL
  AUClast (Min): 41.1 ng·h/mL
  Cmax (Max): 20.5 ng/mL
  Cmax (Min): 5.14 ng/mL
  Tmax (Max): 12.0 h
  Tmax (Min): 60 min
[9]
  Racc (Max): 7.71 (h * ng/mL)/(h * ng/mL)
  Racc (Mean): 3.88 (h * ng/mL)/(h * ng/mL)
  Racc (Median): 2.28 (h * ng/mL)/(h * ng/mL)
  Racc (Min): 1.66 (h * ng/mL)/(h * ng/mL)
[10]
  AUClast (Max): 146 ng·h/mL
  AUClast (Min): 103 ng·h/mL
  Cmax (Max): 28.3 ng/mL
  Cmax (Min): 12.2 ng/mL
[11]
  AUClast (Max): 795 ng·h/mL
  AUClast (Min): 235 ng·h/mL
  Cmax (Max): 83.2 ng/mL
[12]
  AUClast (Max): 185 ng·h/mL
  AUClast (Min): 37.9 ng·h/mL
  Cmax (Max): 29.0 ng/mL
  Cmax (Min): 5.28 ng/mL
[13]
  Racc (Max): 2.15 (h * ng/mL)/(h * ng/mL)
  Racc (Mean): 2.06 (h * ng/mL)/(h * ng/mL)
  Racc (Median): 2.11 (h * ng/mL)/(h * ng/mL)
  Racc (Min): 1.91 (h * ng/mL)/(h * ng/mL)
[14]
  AUClast (Max): 306 ng·h/mL
  AUClast (Min): 79.8 ng·h/mL
  Cmax (Max): 40.8 ng/mL
  Cmax (Min): 7.69 ng/mL
  Tmax (Max): 12.0 h
[15]
  Racc (Max): 1.72 (h * ng/mL)/(h * ng/mL)
  Racc (Mean): 1.17 (h * ng/mL)/(h * ng/mL)
  Racc (Median): 1.15 (h * ng/mL)/(h * ng/mL)
  Racc (Min): 0.740 (h * ng/mL)/(h * ng/mL)
[16]
  AUClast (Max): 407 ng·h/mL
  AUClast (Min): 73.2 ng·h/mL
  Cmax (Max): 32.0 ng/mL
  Cmax (Min): 5.90 ng/mL
[17]
  Racc (Max): 3.62 (h * ng/mL)/(h * ng/mL)
  Racc (Mean): 2.03 (h * ng/mL)/(h * ng/mL)
  Racc (Median): 1.42 (h * ng/mL)/(h * ng/mL)
  Racc (Min): 1.04 (h * ng/mL)/(h * ng/mL)
[18]
  AUClast (Max): 789 ng·h/mL
  AUClast (Min): 384 ng·h/mL
  Cmax (Max): 73.0 ng/mL
  Cmax (Min): 27.5 ng/mL
  Tmax (Max): 10.0 h
[19]
  Racc (Max): 1.90 (h * ng/mL)/(h * ng/mL)
  Racc (Mean): 1.35 (h * ng/mL)/(h * ng/mL)
  Racc (Median): 1.50 (h * ng/mL)/(h * ng/mL)
  Racc (Min): 0.653 (h * ng/mL)/(h * ng/mL)
[20]
  AUClast (Max): 371 ng·h/mL
  AUClast (Min): 115 ng·h/mL
  Cmax (Max): 26.7 ng/mL
  Cmax (Min): 6.94 ng/mL
[21]
  Racc (Max): 1.47 (h * ng/mL)/(h * ng/mL)
  Racc (Mean): 1.12 (h * ng/mL)/(h * ng/mL)
  Racc (Median): 0.965 (h * ng/mL)/(h * ng/mL)
  Racc (Min): 0.932 (h * ng/mL)/(h * ng/mL)
[22]
  AUClast (Max): 660 ng·h/mL
  AUClast (Min): 570 ng·h/mL
  Cmax (Max): 48.2 ng/mL
  Cmax (Min): 36.4 ng/mL
[23]
  Racc (Max): 1.47 (h * ng/mL)/(h * ng/mL)
  Racc (Mean): 1.12 (h * ng/mL)/(h * ng/mL)
  Racc (Median): 0.965 (h * ng/mL)/(h * ng/mL)
  Racc (Min): 0.932 (h * ng/mL)/(h * ng/mL)
[24]
  AUClast (Max): 660 ng·h/mL
  AUClast (Min): 570 ng·h/mL
  Cmax (Max): 48.2 ng/mL
  Cmax (Min): 36.4 ng/mL
